The NIST ThermoML archive (doi:10.1016/j.jct.2018.07.013)

Tests used:
[1] = 298.15 K, 100 kPa, Liquid; for speed of sound: Frequency=3 MHz, Single path-length method; for mass density: Vibrating tube method
[2] = xn = mol fraction of the nth substance listed; conditions: 298.15 K, 100 kPa, Liquid; for speed of sound: Frequency=3 MHz, Single path-length method; for mass density: Vibrating tube method
[3] = excess molar enthalpy (molar enthalpy of mixing); xn = mol fraction of the nth substance listed; conditions: 298.15 K, 100 kPa, Liquid, Power-compensation calorimetry

CCOC(=O)C(C)O (racemic) [DL-ethyl lactate]
[1]
Conditions	mass density [kg/m3]	speed of sound [m/s]
–	1028.45	1279.3

CCOC(=O)C(C)O (stereo not drawn) [DL-ethyl lactate] + CCCCO
Conditions	excess molar enthalpy, [3] [kcal/mol]	mass density, [2] [kg/m3]	speed of sound, [2] [m/s]
x1 = 0.048	0.0471	–	–
x1 = 0.0502	–	819.65	1241.3
x1 = 0.0914	–	830.65	1242.1
x1 = 0.103	0.0841	–	–
x1 = 0.1929	–	856.89	1244.7
x1 = 0.233	0.136	–	–
x1 = 0.3041	–	884.31	1248.3
x1 = 0.314	0.149	–	–
x1 = 0.4061	–	908.31	1252.3
x1 = 0.414	0.154	–	–
x1 = 0.4991	–	929.27	1256
x1 = 0.527	0.146	–	–
x1 = 0.6037	–	951.84	1260.8
x1 = 0.626	0.127	–	–
x1 = 0.707	–	973.11	1265.9
x1 = 0.714	0.0992	–	–
x1 = 0.7968	–	990.82	1270.1
x1 = 0.82	0.0588	–	–
x1 = 0.8927	–	1008.98	1274.6
x1 = 0.91	0.0299	–	–
x1 = 0.951	0.0129	–	–
x1 = 0.9527	–	1019.97	1277.3
x1 = 1	–	1028.45	1279.3

CCCO [propan-1-ol] + CCOC(=O)C(C)O
[2], x2 = 0
Conditions	mass density [kg/m3]	speed of sound [m/s]
–	799.66	1206

CCOC(=O)C(C)O (stereo not drawn) [DL-ethyl lactate] + CCO
Conditions	excess molar enthalpy, [3] [kcal/mol]	mass density, [2] [kg/m3]	speed of sound, [2] [m/s]
x1 = 0.0522	–	809.88	1158.1
x1 = 0.054	0.0177	–	–
x1 = 0.0957	–	828.74	1169.7
x1 = 0.114	0.0337	–	–
x1 = 0.1946	–	866.53	1192.8
x1 = 0.225	0.0502	–	–
x1 = 0.2902	–	897.43	1211.3
x1 = 0.312	0.0554	–	–
x1 = 0.4011	–	927.58	1229.3
x1 = 0.42	0.0574	–	–
x1 = 0.4995	–	950.3	1240.8
x1 = 0.511	0.0538	–	–
x1 = 0.6076	–	971.75	1252.8
x1 = 0.635	0.0457	–	–
x1 = 0.6931	–	986.54	1261.4
x1 = 0.737	0.0349	–	–
x1 = 0.7965	–	1002.43	1268.7
x1 = 0.829	0.0217	–	–
x1 = 0.9047	–	1017.03	1275.2
x1 = 0.93	0.0097	–	–
x1 = 0.9511	–	1022.75	1277.3
x1 = 0.96	0.00478	–	–
x1 = 1	–	1028.45	1279.3

COC(=O)C(C)O (centres undefined) [methyl 2-hydroxypropanoate] + CO
Conditions	excess molar enthalpy, [3] [kcal/mol]	mass density, [2] [kg/m3]	speed of sound, [2] [m/s]
x1 = 0.0565	–	826.67	1134.5
x1 = 0.0945	–	850.35	1152.9
x1 = 0.104	0.0038	–	–
x1 = 0.151	0.00392	–	–
x1 = 0.1933	–	902.12	1196.4
x1 = 0.262	0.00117	–	–
x1 = 0.287	0.000215	–	–
x1 = 0.3029	–	947.03	1234.1
x1 = 0.316	-0.000956	–	–
x1 = 0.3844	–	974.04	1254.7
x1 = 0.399	-0.00413	–	–
x1 = 0.482	-0.00719	–	–
x1 = 0.5099	–	1008.1	1282.4
x1 = 0.595	-0.00903	–	–
x1 = 0.6105	–	1029.88	1301.4
x1 = 0.687	-0.00937	–	–
x1 = 0.7215	–	1049.84	1318.2
x1 = 0.798	-0.00686	–	–
x1 = 0.8206	–	1064.82	1329.8
x1 = 0.879	-0.0044	–	–
x1 = 0.9225	–	1078.13	1337.1
x1 = 0.945	-0.00194	–	–
x1 = 0.9601	–	1082.7	1338.8
x1 = 1	–	1087.35	1339.3

CO [methanol] + COC(=O)C(C)O
[2], x2 = 0
Conditions	mass density [kg/m3]	speed of sound [m/s]
–	786.53	1104

COC(=O)C(C)O (centres undefined) [methyl 2-hydroxypropanoate] + CCO
Conditions	excess molar enthalpy, [3] [kcal/mol]	mass density, [2] [kg/m3]	speed of sound, [2] [m/s]
x1 = 0.0492	–	809.35	1158
x1 = 0.056	0.0277	–	–
x1 = 0.0968	–	831.45	1172.3
x1 = 0.104	0.0497	–	–
x1 = 0.185	0.0801	–	–
x1 = 0.2099	–	879.28	1203.7
x1 = 0.225	0.0932	–	–
x1 = 0.281	0.105	–	–
x1 = 0.3161	–	918.72	1229.4
x1 = 0.3921	–	944.17	1245.2
x1 = 0.464	0.11	–	–
x1 = 0.4987	–	976.29	1266.1
x1 = 0.543	0.102	–	–
x1 = 0.5872	–	1000.2	1283.3
x1 = 0.666	0.0825	–	–
x1 = 0.6963	–	1026.72	1300.8
x1 = 0.794	0.0569	–	–
x1 = 0.8007	–	1049.53	1316.4
x1 = 0.8814	–	1065.65	1326.5
x1 = 0.903	0.0282	–	–
x1 = 0.952	0.0151	–	–
x1 = 0.9535	–	1079.11	1334.4
x1 = 1	–	1087.35	1339.3

CCO [ethanol]
[1]
Conditions	mass density [kg/m3]	speed of sound [m/s]
–	785.16	1143.2
